Measured values reported in PubChem BioAssay AID2060483 (Molecular Pharmacology Branch, DTP, NCI, 2025).
Values joined by “and” are separate entries in the source; they are usually repeats but may differ in a detail not shown here. Identical values can stand only once.

System: K24384-001-R-PDC complex spheroids, viability
Experiment: Anticancer human tumor K24384-001-R-PDC patient-derived pancreatic adenocarcinoma cell line growth inhibition [GQUAD]
Details: for viability, T/C: stronger effect = lower value
Description: DNA G-quadruplex Stabilizer Agents in Combinations in Complex Spheroids
A high-throughput screen of multi-cell type tumor spheroids was designed to identify active combinations of DNA G-quadruplex stabilizer agents and targeted small molecules. Complex spheroids include a stromal component modeled by human endothelial cells (HUVEC) and fibroblasts modeled by human mesenchymal stem cells (MSCs). The concentration ranges selected for each drug and investigational agent were based upon clinically achievable concentrations if the clinical Cmax of the agent was known.
Compounds. The drugs and investigational agents: pidnarulex (CX-5461; NSC782164), APTO-253 (NSC789042), BRACO-19 (NSC847499), peposertib (NSC802822), ceralasertib (NSC780249), elimusertib (NSC800525), camonsertib (NSC841442), AZD-1390 (NSC803789), olaparib (NSC753686), talazoparib (NSC767125), ART-558 (NSC835418), sotorasib (NSC818433), MRTX-1133 (NSC836407), SN-38 (NSC673596), topotecan (NSC609699), etoposide (NSC141540), doxorubicin (NSC123127), gemcitabine (NSC613327), 5-fluorouracil (NSC19893), paclitaxel (NSC125973), vemurafenib (NSC761431), panobinostat (NSC761190), R-306465 (JNJ-16241199; NSC773264), adavosertib (NSC754352), TP-3654 (NSC805149), carboplatin (NSC241240), KSQ-4279 (NSC840948), and staurosporine (NSC755774) were obtained from the National Cancer Institute (NCI) Developmental Therapeutics Program Chemical Repository (34). The FDA-approved anticancer drug set is available from the NCI Developmental Therapeutics Program. […] The stock solutions were prepared in dimethyl sulfoxide (DMSO, Sigma-Aldrich, St. Louis, MO, cat. D2650) at 800-fold the tested concentration and stored at -70 degrees C prior to their use. All drugs and investigational agents were tested over a range starting from a high concentration at or near the clinical Cmax and decreasing in half-log increments. If the clinical Cmax for an agent had not been determined, the highest concentration tested was 10 microM.
2.3 Cell Culture. All cells were maintained in an incubator at 37 degrees C and 5% CO2 with 95% humidity. The PDC lines were cultured according to standard operating procedures established by the NCI PDMR. All PDCs were thawed and cultured in Matrigel-coated flasks prepared with a working solution of 1X Ham's F-12 nutrient mix, without supplementation (Invitrogen, cat. 11765054), 100 U/mL penicillin-streptomycin (Invitrogen, cat. 15140122), and 2.5% Matrigel (Corning Inc., cat. 354248) for the first three passages. The 857933-349-R-J2-PDC line was cultured in 6C/Colon 1B media, which includes advanced DMEM/F-12 (Thermo Fisher Scientific, cat. 12634028), 10 mM HEPES (Thermo Fisher Scientific, cat. 15630080), 1X GlutaMAX supplement (Thermo Fisher Scientific, cat. 35050061), 0.1 mg/mL primocin (InvivoGen, cat. ant-pm-2), 10% defined fetal bovine serum, heat inactivated (HyClone Laboratories Inc., cat. SH30070.03HI), 50% L-WRN conditioned media (ATCC, cat. CRL-3276), 1.25 mM N-Acetyl-L-cysteine (Sigma-Aldrich, cat. A9165), 10 mM nicotinamide (Sigma-Aldrich, cat. N0636), 1X B-27 supplement (Thermo Fisher Scientific, cat. 17504044), 1X N-2 supplement (Thermo Fisher Scientific, cat. 17502048), 10 microM Y-27632 dihydrochloride (Tocris Bioscience, cat. 1254), and 50 ng/mL human EGF recombinant protein (Thermo Fisher Scientific, cat. PHG0311). The 485176-168-R4-J1-PDC line was cultured in Panc media, which includes all 6C/Colon 1B media components plus 100 ng/mL human FGF-10 (Thermo Fisher Scientific, cat. 100-26), 500 nM SB-431542 (Selleckchem, cat. S1067), and gastrin (Tocris, cat. 3006).
[…]
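Further: spheroids exposed to compounds for seven days.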

Q: With `COc1ccc([C@@H](O)c2cc(-c3ncnc4cc(N5CCOCC5)ccc34)c(F)cc2Cl)nn1` as the compound, how does the viability, T/C (compound 0.0316 µM) read?
A: Its viability, T/C is 92.4% and 98.4% and 120%.

Q: What about the viability, T/C (compound 0.1 µM) of the same compound?
A: Its viability, T/C is 99.1% and 95.7% and 103%.

Q: What about the viability, T/C (compound 0.316 µM) of the same compound?
A: The viability, T/C was 103% and 83.4% and 83.3%.

Q: And the viability, T/C (compound 1 µM)?
A: The viability, T/C was 72.3% and 65% and 84.7%.

Q: What about the viability, T/C (compound 3.16 µM) of the same compound?
A: The viability, T/C was 48.4% and 44.9% and 56%.

Q: What about the viability, T/C (compound 10 µM) of the same compound?
A: Its viability, T/C is 29.8% and 22.7% and 35.5%.

Q: And the IC50 (curve of compound)?
A: The IC50 was 2660 nM and 2310 nM and 4740 nM.

Q: For `CC1COCCN1c1cc(-c2ccnn2C)c2ccnc(-c3ccn[nH]3)c2n1` (stereo unspecified) + CN(C)c1ccc(Nc2c3ccc(NC(=O)CCN4CCCC4)cc3nc3cc(NC(=O)CCN4CCCC4)ccc23)cc1, which IC50 (curve of first compound, second compound 0.0316 µM) is on record?
A: Its IC50 is 72.2 nM.

Q: What about the IC50 (curve of first compound, second compound 0.1 µM) of the same compound?
A: The IC50 was 89.1 nM.

Q: What about the IC50 (curve of first compound, second compound 0.316 µM) of the same compound?
A: The IC50 was 131 nM.

Q: What about the IC50 (curve of first compound, second compound 1 µM) of the same compound?
A: The IC50 was 111 nM.

Q: And the IC50 (curve of first compound, second compound 3.16 µM)?
A: Its IC50 is 88.3 nM.

Q: What about the IC50 (curve of first compound, second compound 10 µM) of the same compound?
A: The IC50 was 113 nM.

Q: What about the viability, T/C (second compound 0.0316 µM, first compound 0.0316 µM) of the same compound?
A: The viability, T/C was 69.7%.

Q: What about the viability, T/C (second compound 0.0316 µM, first compound 0.1 µM) of the same compound?
A: Its viability, T/C is 41.9%.

Q: And the viability, T/C (second compound 0.0316 µM, first compound 0.316 µM)?
A: Its viability, T/C is 35.4%.

Q: What about the viability, T/C (second compound 0.0316 µM, first compound 1 µM) of the same compound?
A: The viability, T/C was 24.4%.

Q: And the viability, T/C (second compound 0.0316 µM, first compound 3.16 µM)?
A: The viability, T/C was 29.6%.

Q: And the viability, T/C (second compound 0.0316 µM, first compound 10 µM)?
A: Its viability, T/C is 32.9%.

Q: And the viability, T/C (second compound 0.1 µM, first compound 0.0316 µM)?
A: The viability, T/C was 67.6%.

Q: What about the viability, T/C (second compound 0.1 µM, first compound 0.1 µM) of the same compound?
A: The viability, T/C was 48%.

Q: And the viability, T/C (second compound 0.1 µM, first compound 0.316 µM)?
A: The viability, T/C was 27.2%.

Q: And the viability, T/C (second compound 0.1 µM, first compound 1 µM)?
A: The viability, T/C was 24.9%.

Q: And the viability, T/C (second compound 0.1 µM, first compound 3.16 µM)?
A: The viability, T/C was 30.9%.

Q: And the viability, T/C (second compound 0.1 µM, first compound 10 µM)?
A: The viability, T/C was 31.9%.

Q: And the viability, T/C (second compound 0.316 µM, first compound 0.0316 µM)?
A: Its viability, T/C is 79.2%.

Q: What about the viability, T/C (second compound 0.316 µM, first compound 0.1 µM) of the same compound?
A: The viability, T/C was 56.4%.

Q: And the viability, T/C (second compound 0.316 µM, first compound 0.316 µM)?
A: The viability, T/C was 26.1%.

Q: And the viability, T/C (second compound 0.316 µM, first compound 1 µM)?
A: The viability, T/C was 23.6%.

Q: What about the viability, T/C (second compound 0.316 µM, first compound 3.16 µM) of the same compound?
A: The viability, T/C was 33.6%.

Q: And the viability, T/C (second compound 0.316 µM, first compound 10 µM)?
A: The viability, T/C was 32.3%.

Q: And the viability, T/C (second compound 1 µM, first compound 0.0316 µM)?
A: Its viability, T/C is 78.1%.

Q: What about the viability, T/C (second compound 1 µM, first compound 0.1 µM) of the same compound?
A: Its viability, T/C is 52%.

Q: What about the viability, T/C (second compound 1 µM, first compound 0.316 µM) of the same compound?
A: The viability, T/C was 24.3%.

Q: And the viability, T/C (second compound 1 µM, first compound 1 µM)?
A: Its viability, T/C is 28.8%.

Q: What about the viability, T/C (second compound 1 µM, first compound 3.16 µM) of the same compound?
A: The viability, T/C was 34.2%.

Q: What about the viability, T/C (second compound 1 µM, first compound 10 µM) of the same compound?
A: The viability, T/C was 30.6%.

Q: What about the viability, T/C (second compound 3.16 µM, first compound 0.0316 µM) of the same compound?
A: Its viability, T/C is 91.4%.

Q: And the viability, T/C (second compound 3.16 µM, first compound 0.1 µM)?
A: The viability, T/C was 44.7%.

Q: And the viability, T/C (second compound 3.16 µM, first compound 0.316 µM)?
A: The viability, T/C was 30.9%.

Q: And the viability, T/C (second compound 3.16 µM, first compound 1 µM)?
A: Its viability, T/C is 32.5%.

Q: And the viability, T/C (second compound 3.16 µM, first compound 3.16 µM)?
A: The viability, T/C was 30.8%.

Q: And the viability, T/C (second compound 3.16 µM, first compound 10 µM)?
A: The viability, T/C was 24.6%.

Q: What about the viability, T/C (second compound 10 µM, first compound 0.0316 µM) of the same compound?
A: The viability, T/C was 79.6%.

Q: And the viability, T/C (second compound 10 µM, first compound 0.1 µM)?
A: The viability, T/C was 49%.

Q: And the viability, T/C (second compound 10 µM, first compound 0.316 µM)?
A: Its viability, T/C is 43.1%.

Q: What about the viability, T/C (second compound 10 µM, first compound 1 µM) of the same compound?
A: The viability, T/C was 30.6%.

Q: What about the viability, T/C (second compound 10 µM, first compound 3.16 µM) of the same compound?
A: Its viability, T/C is 28.5%.

Q: And the viability, T/C (second compound 10 µM, first compound 10 µM)?
A: Its viability, T/C is 31.7%.

Q: Which viability, T/C (compound 0.0316 µM) does the source give for `CC(C)n1c(=O)n(C)c2cnc3cc(F)c(-c4ccc(OCCCN5CCCCC5)nc4)cc3c21` here?
A: Its viability, T/C is 108% and 84.2% and 93.7%.

Q: What about the viability, T/C (compound 0.1 µM) of the same compound?
A: Its viability, T/C is 89% and 95.3% and 95.1%.

Q: And the viability, T/C (compound 0.316 µM)?
A: Its viability, T/C is 116% and 97.8% and 99.7%.

Q: And the viability, T/C (compound 1 µM)?
A: Its viability, T/C is 120% and 88% and 123%.

Q: What about the viability, T/C (compound 3.16 µM) of the same compound?
A: Its viability, T/C is 123% and 107% and 119%.

Q: What about the viability, T/C (compound 10 µM) of the same compound?
A: The viability, T/C was 92.1% and 80.3% and 90.2%.

Q: And the IC50 (curve of compound)?
A: The IC50 was over 10000 nM.
